ChEMBL document CHEMBL5390265, “Design, Synthesis, and Pharmacological Evaluation of Multisubstituted Pyrido[4,3-d]pyrimidine Analogues Bearing Deuterated Methylene Linkers as Potent KRASG12D Inhibitors” (J Med Chem, 2023)

Experiments:
NCI-H1299 = assay: Antiproliferative activity against human NCI-H1299 cells harboring KRAS wild type assessed as inhibition of cell growth incubated for 5 days by crystal violet staining analysis; format: functional, cell-based; conditions: NCI-H1299, 120 h
ASPC1 = assay: Antiproliferative activity against human ASPC1 cells harboring […] assessed as inhibition of cell growth incubated for 5 days by crystal violet staining analysis; format: functional, cell-based
AGS = assay: Antiproliferative activity against human AGS cells harboring […] assessed as inhibition of cell growth incubated for 5 days by crystal violet staining analysis; format: functional, cell-based
A549 = assay: Antiproliferative activity against human A549 cells harboring […] assessed as inhibition of cell growth incubated for 5 days by crystal violet staining analysis; format: functional, cell-based
[1] = AUC in Sprague-Dawley rat at 1 mg/kg,iv measured upto 24 hrs by LC-MS/MS analysis; format: ADME, organism-based; set-up: dose 1 mg/kg, time < 24 hrs, route iv; conditions: in vivo
[2] = Clearance in Sprague-Dawley rat at 1 mg/kg,iv measured upto 24 hrs by LC-MS/MS analysis; format: ADME, organism-based; conditions: in vivo
[3] = Half life in Sprague-Dawley rat at 1 mg/kg,iv measured upto 24 hrs by LC-MS/MS analysis; format: ADME, organism-based; conditions: in vivo
GTPase KRas [4] = target: T1, GTPase KRas (Homo sapiens, UniProt P01116); assay: Inhibition of KRAS in human ASPC1 cells assessed as downregulation of ERK phosphorylation incubated for 3 hrs by immunoblotting analysis; format: cell-based; conditions: tested as the 2H-labelled form
GTPase KRas [5] = target: T1, GTPase KRas; assay: Inhibition of KRAS in human AGS cells assessed as downregulation of ERK phosphorylation incubated for 3 hrs by immunoblotting analysis; format: cell-based; conditions: tested as the 2H-labelled form
GTPase KRas [6] = target: T1, GTPase KRas; assay: Inhibition of KRAS in human ASPC1 cells assessed as downregulation of AKT phosphorylation incubated for 3 hrs by immunoblotting analysis; format: cell-based; conditions: tested as the 2H-labelled form
GTPase KRas [7] = target: T1, GTPase KRas; assay: Inhibition of KRAS in human AGS cells assessed as downregulation of AKT phosphorylation incubated for 3 hrs by immunoblotting analysis; format: cell-based; conditions: tested as the 2H-labelled form
GTPase KRas [8] = target: T1, GTPase KRas; assay: Inhibition of recombinant human GTP-bound KRAS wild type (1 to 169 residues) incubated for 1 hr by HTRF assay
[9] = Inhibition of recombinant human His6-tagged KRAS4B G12D mutant incubated for 1 hr by HTRF assay

Row | IC50 (NCI-H1299) [nM] | IC50 (ASPC1; Homo sapiens, ASPC1, 120 h) [nM] | IC50 (AGS; Homo sapiens, AGS, 120 h) [nM] | IC50 (A549; Homo sapiens, A549, 120 h) [nM] | Compound | other results
1 | > 5000 | 23.9 | 15.4 | 1020 | C#CCN(C)C(=O)OC[C@@H]1CC[C@]2(COc3nc(N4C[C@H]5CC[C@@H](C4)N5)c4cnc(-c5cc(O)cc6ccc(F)c(C#C)c56)c(F)c4n3)CCCN12 | –
2 | > 5000 | > 50 | > 50 | > 5000 | C#Cc1c(F)ccc2cc(O)cc(-c3ncc4c(N5C[C@H]6CC[C@@H](C5)N6)nc(OC[C@]56CCCN5[C@@H](Cn5cc(C(C)(C)O)nn5)CC6)nc4c3F)c12 (racemic) | –
3 | 2500 | 2 | 1.2 | 2180 | [2H]C([2H])(Oc1nc(N2C[C@H]3CC[C@@H](C2)N3)c2cnc(-c3cc(N)cc4cccc(C#C)c34)c(F)c2n1)C12CCCN1CC(=C(F)F)C2 (some centres not stated) | –
4 | > 5000 | > 50 | > 50 | > 5000 | C#Cc1c(F)ccc2cc(O)cc(-c3ncc4c(N5C[C@H]6CC[C@@H](C5)N6)nc(NCCCn5cc(COCC67CCCN6CC(=C)C7)nn5)nc4c3F)c12 (some centres not stated) | –
5 | 1930 | 1.1 | 0.6 | 960 | [2H]C([2H])(Oc1nc(N2C[C@H]3CC[C@@H](C2)N3)c2cnc(-c3cc(O)cc4ccc(F)c(C#C)c34)c(F)c2n1)C12CC(=C)CN1CC(=C(F)F)C2 (some centres not stated) | –
6 | > 5000 | > 50 | > 50 | > 5000 | [2H]C([2H])(Oc1nc(N2C[C@H]3CC[C@@H](C2)N3)c2cnc(-c3cccc4cc(F)c(F)c(C#C)c34)c(F)c2n1)C12CCCN1CC(=C(F)F)C2 (some centres not stated) | –
7 | 3020 | 3.9 | 1.1 | 944 | [2H]C([2H])(Oc1nc(N2C[C@H]3CC[C@@H](C2)N3)c2cnc(-c3cc(O)cc4ccc(F)c(C#C)c34)c(F)c2n1)C12CC(=C)CN1CC1(CC1)C2 (some centres not stated) | –
8 | > 5000 | > 50 | > 50 | > 5000 | [2H]C([2H])(Oc1nc(N2C[C@H]3CC[C@@H](C2)N3C)c2cnc(-c3cc(O)cc4ccc(F)c(C#C)c34)c(F)c2n1)C12CCCN1CC(=C(F)F)C2 (some centres not stated) | –
9 | > 5000 | > 50 | > 50 | > 5000 | C#Cc1c(F)ccc2cc(O)cc(-c3ncc4c(N5C[C@H]6CC[C@@H](C5)N6)nc(OC[C@H]5CC6CCN5C[C@@H]6C=C)nc4c3F)c12 | –
10 | > 5000 | > 50 | > 50 | 4500 | C#Cc1c(F)ccc2cc(O)cc(-c3ncc4c(N5C[C@H]6CC[C@@H](C5)N6)nc(OC(C)C56CCCN5CC(=C)C6)nc4c3F)c12 (some centres not stated) | –
11 | 1410 | 23.7 | 22.5 | 1090 | [2H]C([2H])(Oc1nc(N2C[C@H]3CC[C@@H](C2)N3)c2cnc(-c3cccc4ccc(F)c(C#C)c34)c(F)c2n1)C12CCCN1CC(=C(F)F)C2 (some centres not stated) | IC50 (GTPase KRas [8]): 20.3 nM; IC50 [9]: 2.21 nM
12 | > 5000 | – | – | – | C#CCN(C)C(=O)OC[C@H]1CC[C@@]2(COc3nc(N4C[C@H]5CC[C@@H](C4)N5)c4cnc(-c5cc(O)cc6ccc(F)c(C#C)c56)c(F)c4n3)CCCN12 (racemic) | IC50 (ASPC1; aspc1): 39.4 nM; IC50 (AGS; ags): 25.5 nM; IC50 (A549; a549): 1760 nM
13 | > 5000 | > 50 | > 50 | > 5000 | C#Cc1c(F)ccc2cc(O)cc(-c3ncc4c(N5C[C@H]6CC[C@@H](C5)N6)nc(OCCn5cc(COCC67CCCN6CC(=C)C7)nn5)nc4c3F)c12 (some centres not stated) | –

Further lines, the compound ahead of its results:

Row | Compound | IC50 (NCI-H1299) [nM] | IC50 (ASPC1; Homo sapiens, ASPC1, 120 h) [nM] | IC50 (AGS; Homo sapiens, AGS, 120 h) [nM] | IC50 (A549; Homo sapiens, A549, 120 h) [nM] | other results
14 | [2H]C([2H])(Oc1nc(N2CCC(N(C)C)C2)c2cnc(-c3cc(O)cc4ccc(F)c(C#C)c34)c(F)c2n1)C12CCCN1CC(=C(F)F)C2 (configuration not stated) | > 5000 | > 50 | > 50 | > 5000 | –
15 | [2H]C([2H])(Oc1nc(N2C[C@H]3CC[C@@H](C2)N3)c2cnc(-c3cc(O)cc4ccc(F)c(C#C)c34)c(F)c2n1)C12CCCN1CC(=C)C2 (some centres not stated) | > 5000 | 3.8 | 1.1 | 948 | –
16 | C#Cc1c(F)ccc2cc(O)cc(-c3ncc4c(N5C[C@H]6CC[C@@H](C5)N6)nc(OC[C@]56CCCN5[C@@H](COC(=O)NCC57C[C@H]8C[C@@H](C5)C[C@@H](C7)C8)CC6)nc4c3F)c12 (mixture of isomers) | > 5000 | 42.2 | 12.6 | > 5000 | –
17 | [2H]C([2H])(Oc1nc(N2C[C@H]3CC[C@@H](C2)N3)c2cnc(-c3cccc4c(F)cc(F)c(C#C)c34)c(F)c2n1)C12CCCN1CC(=C(F)F)C2 (some centres not stated) | > 5000 | > 50 | > 50 | > 5000 | –
18 | C#CCN(C)C(=O)OC[C@H]1CC[C@@]2(COc3nc(N4C[C@H]5CC[C@@H](C4)N5)c4cnc(-c5cc(O)cc6ccc(F)c(C#C)c56)c(F)c4n3)CCCN12 | – | – | – | – | IC50 (ASPC1; aspc1): 207 nM; IC50 (AGS; ags): 59.3 nM; IC50 (A549; a549): > 5000 nM
19 | [2H]C([2H])(Oc1nc(NCC2(N(C)C)CCC2)c2cnc(-c3cc(N)cc4ccc(F)c(C#C)c34)c(F)c2n1)C12CCCN1CC(=C(F)F)C2 (configuration not stated) | > 5000 | 28.4 | 12 | 700 | AUC at 24 h [1]: 218 ng·h/mL; clearance [2]: 81.1 mL/min/kg; half-life [3]: 9.42 h
20 | [2H]C([2H])(Oc1nc(N2C[C@H]3CC[C@@H](C2)N3)c2cnc(-c3c(Cl)c(C)cc4[nH]ncc34)c(F)c2n1)C12CCCN1CC(=C(F)F)C2 (some centres not stated) | > 5000 | > 50 | > 50 | > 5000 | –
21 | [2H]C([2H])(Oc1nc(N[C@H]2CCCC[C@@H]2N(C)C)c2cnc(-c3cc(O)cc4ccc(F)c(C#C)c34)c(F)c2n1)C12CCCN1CC(=C(F)F)C2 (some centres not stated) | > 5000 | > 50 | > 50 | > 5000 | –
22 | C#Cc1c(F)ccc2cc(O)cc(-c3ncc4c(N5C[C@H]6CC[C@@H](C5)N6)nc(OC[C@]56CCCN5[C@@H](Cn5cc(COCCOC)nn5)CC6)nc4c3F)c12 (racemic) | > 5000 | > 50 | > 50 | > 5000 | –
23 | C#Cc1c(F)ccc2cc(O)cc(-c3ncc4c(N5C[C@H]6CC[C@@H](C5)N6)nc(OCC56CCCN5CC(=C)C6)nc4c3F)c12 (some centres not stated) | > 5000 | 4.6 | 1.4 | 2220 | –
24 | C#Cc1c(F)ccc2cc(O)cc(-c3ncc4c(N5C[C@H]6CC[C@@H](C5)N6)nc(OC[C@]56CCCN5[C@@H](COC(=O)N5CCS(=O)(=O)CC5)CC6)nc4c3F)c12 (racemic) | > 5000 | > 50 | > 50 | > 5000 | –
25 | C#Cc1c(F)ccc2cccc(-c3ncc4c(N5C[C@H]6CC[C@@H](C5)N6)nc(OCC56CCCN5CC(=C(F)F)C6)nc4c3F)c12 (some centres not stated) | – | – | – | – | inhibition (GTPase KRas [4]): Dose-Dependent Effect; inhibition (GTPase KRas [5]): Dose-Dependent Effect; inhibition (GTPase KRas [6]): Dose-Dependent Effect; inhibition (GTPase KRas [7]): Dose-Dependent Effect
26 | [2H]C1([2H])CCC2(C([2H])([2H])Oc3nc(N4C[C@H]5CC[C@@H](C4)N5)c4cnc(-c5cc(O)cc6ccc(F)c(C#C)c56)c(F)c4n3)CC(=C)CN12 (some centres not stated) | > 5000 | 2 | 0.8 | 1680 | –
27 | C#Cc1c(F)ccc2cc(O)cc(-c3ncc4c(N5C[C@H]6CC[C@@H](C5)N6)nc(N5C[C@@H]6C[C@H](C5)c5cccc(=O)n5C6)nc4c3F)c12 | > 5000 | > 50 | > 50 | > 5000 | –
28 | [2H]C(Oc1nc(N2C[C@H]3CC[C@@H](C2)N3)c2cnc(-c3cc(O)cc4ccc(F)c(C#C)c34)c(F)c2n1)C12CCCN1CC(=C)C2 (some centres not stated) | > 5000 | 2.1 | 1.3 | 731 | –
29 | [2H]C([2H])(Oc1nc(N2C[C@H]3CC[C@@H](C2)N3)c2cnc(-c3cc(O)cc4ccc(F)c(C#C)c34)c(F)c2n1)C12CC(=C)CN1C[C@H](F)C2 (some centres not stated) | > 5000 | 1.6 | 0.8 | 2160 | –
30 | C#Cc1c(F)ccc2cc(O)cc(-c3ncc4c(N5C[C@H]6CC[C@@H](C5)N6)nc(OC[C@]56CCCN5[C@@H](Cn5cc(CCC#N)nn5)CC6)nc4c3F)c12 (racemic) | > 5000 | > 50 | > 50 | > 5000 | –
31 | [2H]C([2H])(Oc1nc(NCC23CCCN2CCC3)c2cnc(-c3cc(O)cc4ccc(F)c(C#C)c34)c(F)c2n1)C12CCCN1CC(=C(F)F)C2 (configuration not stated) | > 5000 | > 50 | > 50 | > 5000 | –
32 | [2H]C([2H])(Oc1nc(N2C[C@H]3CC[C@@H](C2)N3)c2cnc(-c3cc(O)cc4ccc(F)c(C#C)c34)c(F)c2n1)C12CC(=C)CN1CC(=C)C2 | 2010 | 1.3 | 0.4 | 559 | –
